Data from patent US6855730B2, “3-methylidenyl-2-indolinone modulators of protein kinase” (Sugen, Inc., priority 1998, dated 2005).

Molecular target: T1, chimeric receptor having the extra-cellular domain of EGF-R and the intra-cellular domain of Her2 (Homo sapiens, UniProt P04626)
T1 construct: fused on or other part: the same chimera
Experiment: EGF-induced Her2-driven BrdU incorporation
Type: cell-based
Conditions: read-out: BrdU HER 2 driven IC50
Method: The cellular/catalytic assays described herein are performed in an ELISA format. The general procedure is as follows: a compound is introduced to cells expressing the test kinase, either naturally or recombinantly, for a selected period of time after which, if the test kinase is a receptor, a ligand known to activate the receptor is added. The cells are lysed and the lysate is transferred to the wells of an ELISA plate previously coated with a specific antibody recognizing the substrate of the enzymatic phosphorylation reaction. Non-substrate components of the cell lysate are washed away and the amount of phosphorylation on the substrate is detected with an antibody specifically recognizing phosphotyrosine compared with control cells that were not contacted with a test compound. The cellular/biologic assays described herein measure the amount of DNA made in response to activation of a test kinase, which is a general measure of a proliferative response. The general procedure for this assay is as follows: a compound is introduced to cells expressing the test kinase, either naturally or recombinantly, for a selected period of time after which, if the test kinase is a receptor, a ligand known to activate the receptor is added. After incubation at least overnight, a DNA labeling reagent such as Bromodeoxyuridine (BrdU) or 3H-thymidine is added. The amount of labeled DNA is detected with either an anti-BrdU antibody or by measuring radioactivity and is compared to control cells not contacted with a test compound.
EGF-Induced Her2-Driven BrdU Incorporation
Protocol • (1) Cells-are seeded at 8000 cells/well in DMEM, 10% CS, 2mM Gln in a 96-well plate. Cells are incubated overnight at 37° C. in 5% CO2. • (2) After 24 hours, the cells are washed with PBS, and then are serum starved in serum free medium (0% CS DMEM with 0.1% BSA) for 24 hours. • (3) On day 3, ligand (EGF=2 nM, prepared in DMEM with 0.1% BSA) and test compounds are added to the cells simultaneously. The negative control wells receive serum free DMEM with 0.1% BSA only, the positive control cells receive the ligand (EGF) but no test compound. Test compounds are prepared in serum free DMEM with ligand in a 96 well plate, and serially diluted for 7 test concentrations. • (4) After 20 hours of ligand activation, diluted BrdU labeling reagent (1:100 in DMEM, 0.1% BSA) is added and the cells are incubated with BrdU (final concentration=10 μM) for 1.5 hours. • (5) After incubation with labeling reagent, the medium is removed by decanting and tapping the inverted plate on a paper towel. FixDenat solution is added (50 μl/well) and the plates are incubated at room temperature for 45 minutes on a plate shaker. • (6) The FixDenat solution is thoroughly removed by decanting and tapping the inverted plate on a paper towel. Milk is added (5% dehydrated milk in PBS, 200 μ/well) as a blocking solution and the plate is incubated for 30 minutes at room temperature on a plate shaker. • (7) The blocking solution is removed by decanting and the wells are washed once with PBS. Anti-BrdU-POD solution (1:100 dilution in PBS, 1% BSA) is added (100 μl/well) and the plate is incubated for 90 minutes at room temperature on a plate shaker. • (8) The antibody conjugate is thoroughly removed by decanting and rinsing the wells 5 times with PBS, and the plate is dried by inverting and tapping on a paper towel. • (9) TMB substrate solution is added (100 μl/well) and incubated for 20 minutes at room temperature on a plate shaker until color development is sufficient for photometric detection. • (10) The absorbance of the samples are measured at 410 nm (in “dual wavelength” mode with a filter reading at 490 nm, as a reference wavelength) on a Dynatech ELISA plate reader.

T1 sequence (P04626 676-1255 limits assumed, change not shown): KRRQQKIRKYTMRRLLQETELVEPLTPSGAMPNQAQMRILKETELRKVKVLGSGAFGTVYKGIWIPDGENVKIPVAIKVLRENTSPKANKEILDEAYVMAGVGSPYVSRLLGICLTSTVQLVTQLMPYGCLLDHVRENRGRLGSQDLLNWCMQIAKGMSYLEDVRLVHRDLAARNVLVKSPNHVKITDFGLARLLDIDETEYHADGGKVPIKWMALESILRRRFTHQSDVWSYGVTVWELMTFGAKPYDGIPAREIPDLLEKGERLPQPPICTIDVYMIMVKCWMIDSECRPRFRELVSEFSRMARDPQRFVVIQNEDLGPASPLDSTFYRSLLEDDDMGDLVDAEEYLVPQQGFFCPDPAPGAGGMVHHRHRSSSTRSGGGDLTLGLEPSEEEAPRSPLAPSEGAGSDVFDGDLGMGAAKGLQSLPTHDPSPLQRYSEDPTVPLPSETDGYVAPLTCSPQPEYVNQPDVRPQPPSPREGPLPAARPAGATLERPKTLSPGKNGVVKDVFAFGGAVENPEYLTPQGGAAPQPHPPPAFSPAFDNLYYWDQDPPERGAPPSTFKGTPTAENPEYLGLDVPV

- IC50: 8.7 µM
SMILES: COc1c(C(C)C)cc(/C=C2/C(=O)Nc3ccccc32)cc1C(C)C [Example 1, 3-(3,5-Diisopropyl-4-methoxybenzylidene)-1,3-dihydroindol-2-one]
